Consider 1 molecule from article PMC7865522, “Analyzing Kinase Similarity in Small Molecule and Protein Structural Space to Explore the Limits of Multi-Target Screening” (Molecules, 2021).

What all share (assay): DiscoverX KINOMEscan competition binding assay
The target of one assay is T1, BRAF (Homo sapiens, UniProt P15056).
T1 construct: purchased DiscoverX (KINOMEscan service); host or cells: E. coli BL21-derived host (T7 phage) or HEK-293
To be noted: 10 µM; Table 3; read-out: % ctrl. activity at 10 µM, BRAF (DiscoverX), printed as symbol. In short, it runs like this:
(§1)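 Values are % control, where lower signal indicates tighter binding; 10 µM compound was tested. DNA- or phage-tagged kinase was incubated 1 h at room temperature with compound and ligand-coated affinity beads. Kinase retained on the beads was eluted and measured by qPCR.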

In another assay the target is T2, EGFR (Homo sapiens, UniProt P00533).
T2 construct: purchased DiscoverX (KINOMEscan service); host or cells: E. coli BL21-derived host (T7 phage) or HEK-293
T2 sequence (P00533 25-1210): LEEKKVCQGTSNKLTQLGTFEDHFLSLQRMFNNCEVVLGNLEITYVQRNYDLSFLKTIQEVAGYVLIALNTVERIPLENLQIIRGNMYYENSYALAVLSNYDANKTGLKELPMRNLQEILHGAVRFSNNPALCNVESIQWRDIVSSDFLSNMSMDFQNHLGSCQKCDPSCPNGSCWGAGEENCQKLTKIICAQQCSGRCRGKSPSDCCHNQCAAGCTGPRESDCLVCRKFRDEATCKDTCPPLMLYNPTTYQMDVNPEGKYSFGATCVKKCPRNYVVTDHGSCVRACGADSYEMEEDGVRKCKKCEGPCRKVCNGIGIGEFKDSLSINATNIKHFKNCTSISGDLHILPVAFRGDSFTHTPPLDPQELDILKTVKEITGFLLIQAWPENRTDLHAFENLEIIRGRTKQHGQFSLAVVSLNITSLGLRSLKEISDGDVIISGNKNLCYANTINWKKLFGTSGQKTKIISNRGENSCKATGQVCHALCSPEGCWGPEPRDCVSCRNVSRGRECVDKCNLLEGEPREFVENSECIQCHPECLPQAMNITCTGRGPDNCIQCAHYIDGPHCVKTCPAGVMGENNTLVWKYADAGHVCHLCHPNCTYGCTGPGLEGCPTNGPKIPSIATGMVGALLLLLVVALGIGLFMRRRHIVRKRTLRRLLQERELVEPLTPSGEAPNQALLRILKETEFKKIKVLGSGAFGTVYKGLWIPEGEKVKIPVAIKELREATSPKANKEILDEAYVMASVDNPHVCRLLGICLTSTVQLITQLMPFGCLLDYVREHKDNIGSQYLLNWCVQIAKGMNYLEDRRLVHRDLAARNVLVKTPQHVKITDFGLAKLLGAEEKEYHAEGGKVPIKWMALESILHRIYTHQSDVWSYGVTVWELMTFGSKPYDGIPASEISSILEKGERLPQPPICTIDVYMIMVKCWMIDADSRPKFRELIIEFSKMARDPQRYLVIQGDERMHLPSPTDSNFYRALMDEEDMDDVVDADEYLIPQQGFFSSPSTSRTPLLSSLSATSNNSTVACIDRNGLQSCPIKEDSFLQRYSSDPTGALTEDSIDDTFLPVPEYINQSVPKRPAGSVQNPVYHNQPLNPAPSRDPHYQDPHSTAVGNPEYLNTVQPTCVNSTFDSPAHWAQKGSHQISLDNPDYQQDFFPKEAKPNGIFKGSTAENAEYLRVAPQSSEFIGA
To be noted: compound 10 µM; lower values = higher affinity; below 35% = significant binding. In short, it runs like this: as §1

The target of a further assay is T3, ErbB2 (Homo sapiens, UniProt P04626).
T3 construct: purchased DiscoverX (KINOMEscan service); host or cells: E. coli BL21-derived host (T7 phage) or HEK-293
T3 sequence (P04626 23-1255): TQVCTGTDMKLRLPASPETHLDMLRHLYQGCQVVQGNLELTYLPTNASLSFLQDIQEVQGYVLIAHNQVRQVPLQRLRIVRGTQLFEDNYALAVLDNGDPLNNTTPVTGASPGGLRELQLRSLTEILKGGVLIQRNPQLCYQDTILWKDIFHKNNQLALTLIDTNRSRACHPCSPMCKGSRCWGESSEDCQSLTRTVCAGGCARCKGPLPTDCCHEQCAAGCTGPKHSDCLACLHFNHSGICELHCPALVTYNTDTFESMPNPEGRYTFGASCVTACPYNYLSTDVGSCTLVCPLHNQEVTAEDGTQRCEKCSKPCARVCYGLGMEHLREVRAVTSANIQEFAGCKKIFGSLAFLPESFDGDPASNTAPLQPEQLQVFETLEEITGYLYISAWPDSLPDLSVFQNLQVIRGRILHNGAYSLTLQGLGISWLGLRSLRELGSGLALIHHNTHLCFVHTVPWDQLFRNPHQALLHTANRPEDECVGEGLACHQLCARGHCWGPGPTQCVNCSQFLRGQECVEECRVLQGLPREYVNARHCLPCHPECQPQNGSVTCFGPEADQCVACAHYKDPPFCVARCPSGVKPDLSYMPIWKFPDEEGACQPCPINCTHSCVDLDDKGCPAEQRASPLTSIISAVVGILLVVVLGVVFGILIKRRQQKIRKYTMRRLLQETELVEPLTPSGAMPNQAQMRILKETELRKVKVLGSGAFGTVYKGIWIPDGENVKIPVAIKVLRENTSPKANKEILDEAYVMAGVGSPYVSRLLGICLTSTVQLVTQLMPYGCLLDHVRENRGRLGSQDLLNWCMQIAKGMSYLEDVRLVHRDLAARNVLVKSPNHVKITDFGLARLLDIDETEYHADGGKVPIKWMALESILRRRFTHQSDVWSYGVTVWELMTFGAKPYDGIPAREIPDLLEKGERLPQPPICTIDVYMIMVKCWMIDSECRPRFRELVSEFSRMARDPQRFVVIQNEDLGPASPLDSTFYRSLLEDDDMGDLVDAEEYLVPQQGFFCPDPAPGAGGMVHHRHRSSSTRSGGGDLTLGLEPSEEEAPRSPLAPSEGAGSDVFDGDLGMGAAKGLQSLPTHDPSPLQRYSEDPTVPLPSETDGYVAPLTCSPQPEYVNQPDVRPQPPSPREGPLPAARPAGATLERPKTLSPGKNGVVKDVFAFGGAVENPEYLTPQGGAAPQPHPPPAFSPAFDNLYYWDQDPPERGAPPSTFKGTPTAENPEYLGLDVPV
To be noted: compound 10 µM; lower values = higher affinity; below 35% = significant binding. The method in brief: as §1

Another assay deals with T4, VEGFR2 (Homo sapiens, UniProt P35968).
T4 construct: purchased DiscoverX (KINOMEscan service); host or cells: E. coli BL21-derived host (T7 phage) or HEK-293
T4 sequence (P35968 20-1356): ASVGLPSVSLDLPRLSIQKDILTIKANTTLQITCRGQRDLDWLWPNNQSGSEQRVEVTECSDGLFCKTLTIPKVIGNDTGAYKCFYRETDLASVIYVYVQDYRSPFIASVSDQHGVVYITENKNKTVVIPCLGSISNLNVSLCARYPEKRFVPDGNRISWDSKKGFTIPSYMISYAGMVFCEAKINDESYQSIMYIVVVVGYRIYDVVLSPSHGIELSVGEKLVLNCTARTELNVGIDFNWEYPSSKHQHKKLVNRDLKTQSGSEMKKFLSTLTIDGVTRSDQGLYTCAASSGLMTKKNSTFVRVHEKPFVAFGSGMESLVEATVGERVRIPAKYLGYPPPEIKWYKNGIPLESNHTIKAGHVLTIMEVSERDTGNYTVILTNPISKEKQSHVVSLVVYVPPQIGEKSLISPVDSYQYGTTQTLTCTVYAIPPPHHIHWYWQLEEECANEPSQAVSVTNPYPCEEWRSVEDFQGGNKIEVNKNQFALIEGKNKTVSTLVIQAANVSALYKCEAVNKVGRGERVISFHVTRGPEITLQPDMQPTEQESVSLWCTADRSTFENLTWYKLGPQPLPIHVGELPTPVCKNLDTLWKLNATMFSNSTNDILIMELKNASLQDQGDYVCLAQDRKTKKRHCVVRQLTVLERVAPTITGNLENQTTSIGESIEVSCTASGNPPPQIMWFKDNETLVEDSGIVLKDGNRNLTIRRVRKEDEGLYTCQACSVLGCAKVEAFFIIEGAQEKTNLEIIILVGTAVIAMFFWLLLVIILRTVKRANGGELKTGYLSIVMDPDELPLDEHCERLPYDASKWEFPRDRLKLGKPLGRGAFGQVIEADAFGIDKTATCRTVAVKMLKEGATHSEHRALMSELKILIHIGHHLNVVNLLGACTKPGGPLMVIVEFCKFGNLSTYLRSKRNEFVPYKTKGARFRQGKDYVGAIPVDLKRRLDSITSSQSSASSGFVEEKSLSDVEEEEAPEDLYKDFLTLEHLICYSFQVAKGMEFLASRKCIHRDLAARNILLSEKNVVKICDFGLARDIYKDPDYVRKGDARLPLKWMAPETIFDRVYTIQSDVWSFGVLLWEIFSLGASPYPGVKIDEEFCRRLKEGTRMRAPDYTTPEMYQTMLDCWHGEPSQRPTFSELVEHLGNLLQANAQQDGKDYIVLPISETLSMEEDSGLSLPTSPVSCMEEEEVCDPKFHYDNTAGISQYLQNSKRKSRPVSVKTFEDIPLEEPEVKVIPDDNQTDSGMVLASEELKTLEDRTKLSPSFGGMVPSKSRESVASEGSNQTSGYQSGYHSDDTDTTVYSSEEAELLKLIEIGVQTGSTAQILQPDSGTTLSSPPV
Particulars: compound 10 µM; lower values = higher affinity; below 35% = significant binding. The method in brief: as §1

A further assay has as its target PI3K (Homo sapiens, UniProt P42336). On the set-up: purchased DiscoverX (KINOMEscan service); host or cells: E. coli BL21-derived host (T7 phage) or HEK-293. Particulars: compound 10 µM; lower values = higher affinity; below 35% = significant binding. In short, it runs like this:
as §1

Molecules are shown by their SMILES.

Chain of PI3K (P42336 whole entry): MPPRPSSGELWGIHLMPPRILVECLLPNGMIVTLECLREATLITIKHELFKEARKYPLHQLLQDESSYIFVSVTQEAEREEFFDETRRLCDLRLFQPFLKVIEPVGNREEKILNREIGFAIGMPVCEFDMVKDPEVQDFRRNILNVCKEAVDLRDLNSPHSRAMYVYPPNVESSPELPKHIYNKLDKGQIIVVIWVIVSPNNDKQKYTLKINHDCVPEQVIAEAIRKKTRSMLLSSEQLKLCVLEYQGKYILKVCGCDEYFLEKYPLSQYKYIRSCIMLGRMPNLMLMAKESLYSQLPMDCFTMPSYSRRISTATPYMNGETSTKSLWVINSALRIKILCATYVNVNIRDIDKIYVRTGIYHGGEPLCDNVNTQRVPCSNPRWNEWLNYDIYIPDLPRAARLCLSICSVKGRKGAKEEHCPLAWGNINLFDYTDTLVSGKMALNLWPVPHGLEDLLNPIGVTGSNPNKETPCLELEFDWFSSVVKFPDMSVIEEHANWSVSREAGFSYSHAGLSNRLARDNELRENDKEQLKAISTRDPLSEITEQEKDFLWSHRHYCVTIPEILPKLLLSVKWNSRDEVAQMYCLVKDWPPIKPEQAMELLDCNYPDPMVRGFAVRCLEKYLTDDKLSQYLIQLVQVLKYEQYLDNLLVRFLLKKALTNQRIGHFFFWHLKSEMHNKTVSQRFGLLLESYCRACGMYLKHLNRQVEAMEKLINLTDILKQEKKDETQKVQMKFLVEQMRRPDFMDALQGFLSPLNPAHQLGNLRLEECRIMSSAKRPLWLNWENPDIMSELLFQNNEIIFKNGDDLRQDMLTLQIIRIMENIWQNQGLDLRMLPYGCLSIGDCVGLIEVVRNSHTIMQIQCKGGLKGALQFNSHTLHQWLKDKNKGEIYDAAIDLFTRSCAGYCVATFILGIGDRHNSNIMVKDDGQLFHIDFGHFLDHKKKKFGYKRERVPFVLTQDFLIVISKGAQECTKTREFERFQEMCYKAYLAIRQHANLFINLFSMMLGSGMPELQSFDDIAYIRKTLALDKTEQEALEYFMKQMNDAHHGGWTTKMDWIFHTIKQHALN

Regarding `COC(=O)Cc1ccc(Oc2ncnc3sc4c(c23)CC[C@@H](C)C4)cc1` (racemic) [DS39984], the remaining binding at 10 µM at BRAF is no less than 99%. Moreover, on EGFR, the “% control, EGFR (DiscoverX)” value turned out to be 17 % control. For the same molecule, the “% control, ErbB2 (DiscoverX)” value on ErbB2 is 21 % control. At VEGFR2, the “% control, VEGFR2 (DiscoverX)” value came to 99 % control. For the same molecule, the “% control, PI3K (DiscoverX)” value on PI3K came to 100 % control.
